Data on 1 molecule can be found in patent US11298333B1, “Methods of reducing the risk of cardiovascular events in a subject” (Amarin Pharmaceuticals Ireland Limited, priority 2018, dated 2022).

The test system of the experiment is statin-treated patients with a history of atherosclerosis or diabetes. The experiment is described as follows: REDUCE-IT Example 2: recurrent and total ischemic events (Andersen-Gill, Wei-Lin-Weissfeld). The experiment is classed as in vivo, human. An excerpt:
The following study was a multi-center, placebo-controlled clinical trial the details of which are described above in Example 1, the REDUCE-IT design. […] Randomization was stratified by cardiovascular risk cohort (i.e., secondary or primary prevention), use of ezetimibe, and by geographic region.
The primary outcome for the study was total recurrent events consisting of the composite of cardiovascular death, nonfatal myocardial infarction, nonfatal stroke, coronary revascularization, or hospitalization for unstable angina. Recurrent event analyses were also performed for the key secondary endpoint, a composite of cardiovascular death, non-fatal myocardial infarction, or non-fatal stroke. For each of these composite endpoints, the effects of icosapent ethyl in the secondary and primary prevention strata were examined separately.
Demographic and baseline disease characteristics are presented using frequencies and percentages for categorical variables and medians with interquartile ranges for continuous variables. Between treatment group comparisons were derived using the chi-square test for categorical variables and Wilcoxon rank test for continuous variables. All clinical endpoint events used in the efficacy analyses were adjudicated by an independent Clinical Endpoint Committee (CEC) who were blinded to the treatment assignment. Since the primary efficacy endpoint was the time from randomization to the first occurrence of any component of the composite endpoint, and recurrence of such events within each patient is possible, a pre-specified analysis using a Cox proportional-hazard with the counting-process formulation of Andersen and Gill was performed to model the first and all recurrent cardiovascular events. Hazard ratios (HR) and corresponding 95% confidence intervals (CI) are reported from this model. In addition, as a marginal model and an extension of survival models based on the Cox proportional hazard model, the modified Wei-Lin-Weissfeld (WLW) method for analysis of recurrent events in the presence of deaths was carried out as a supportive analysis. In addition, as pre-specified, a recurrent event analysis using the Andersen-Gill and Wei-Lin-Weissfeld methods were carried out for the individual primary event components other than CV death. Though not pre-specified, additional recurrent event analyses were performed for the key secondary endpoint, which is a composite of CV death, non-fatal MI, or non-fatal stroke, and for the primary endpoint and the key secondary endpoint in the primary and secondary prevention strata to explore further the consistency of clinical benefit of icosapent ethyl. In subgroup analyses of the two cardiovascular risk strata (i.e., primary and secondary prevention), site-level discrepancies in cardiovascular risk group assignment occurring at entry and detected during the study (1.8%) were adjusted to conform with documented medical history data prior to randomization. All efficacy analyses were performed according to the intention-to-treat principle. All tests were based on a 2-sided nominal significance level of 5% with no adjustments for multiple comparisons.

[1] abbreviates: without adjusting for stratification differences.
The mark [2] stands for this setting: without adjustment for stratification differences.

With `CC/C=C\C/C=C\C/C=C\C/C=C\C/C=C\CCCC(=O)OCC` [Icosapent Ethyl, eicosapentaenoic acid ethyl ester], where the note is “Wei-Lin-Weissfeld model”, the “First occurrence of primary composite endpoint: HR vs placebo” value is given as 0.75 and the “Second occurrence of primary composite endpoint: HR vs placebo” value worked out at 0.72. Under “adjusted stratification”, the “Total key secondary endpoints: HR, primary prevention stratum” value stood at 0.71; the “Total key secondary endpoints: HR, secondary prevention stratum” value is given as 0.70; the “Total primary endpoint events: HR, primary prevention stratum” value was determined as 0.79; the “Total primary endpoint events: HR, secondary prevention stratum” value worked out at 0.66. Moreover, for the setting “in vivo”, the “Cardiovascular deaths prevented per 100 patients treated for five years” value was found to be 1, the “Coronary revascularizations prevented per 100 patients treated for five years” value was 8, the “Episodes of unstable angina prevented per 100 patients treated for five years” value was 2 and the “Myocardial infarctions prevented per 100 patients treated for five years” value is on record as 4. Also, for the setting “in vivo”, the “Relative risk reduction in total events for the primary composite efficacy outcome” value was 32% and the “Strokes prevented per 100 patients treated for five years” value is 1. Further, the “Total key secondary endpoints: HR vs placebo” value (overall) amounted to 0.71. For the same molecule, under setting [1], the “Total primary endpoint events: HR, primary prevention stratum” value is recorded as 0.86 and the “Total primary endpoint events: HR, secondary prevention stratum” value was 0.65. Besides, under setting [2], the “Total key secondary endpoint events: HR, primary prevention” value was 0.78 and the “Total key secondary endpoint events: HR, secondary prevention stratum” value is on record as 0.69.
